{"source": "patent US12162878B2", "about": "(HINOVA PHARMACEUTICALS INC., priority 2018, dated 2024)", "data": [{"tested_on": "CWR22RV1 cells", "assay": "Inhibition of proliferation of CWR22RV1 cells (CCK-8)", "format": "cell-based, human", "details": "Homo sapiens, CWR22Rv1, 144 h, 6 days", "experimental": "• CWR22RV1 cell line (Cell Bank of Chinese Academy of Sciences, TCHu100) • FBS (Gibco, Cat. No. 10099-141) • 0.01M PBS (Biosharp, Cat. No. 162262) • RIPM1640 (Hyclone, Cat. No. 308090.01) • Penicillin-Streptomycin (Hyclone, Cat. No. SV30010) • Cell counting kit-8 (Signalway Antibody, Cat. No. CP002) • DMSO (Sigma, Cat. No. D5879) • Centrifuge Tube, 15 ml (Excell Bio, Cat. No. CS015-0001) • Cell Culture Dish, (Excell Bio, Cat. No. CS016-0128) • 96-well cell culture cluster (Corning, Cat. No. 3599) • 2. Experimental method (1) Preparation of Buffer\n1) CWR22RV1 cells were subcultured in cell culture medium, and the cells in good growth condition were seeded in a 96-well plate, 80 μL for each well, thus the number of cells per well was 1500, then the plate was cultured overnight in a 37° C., 5% CO2 cell incubator.\n2) The drug was prepared with dimethyl sulfoxide (DMSO) as a 30 mM stock solution. Prior to use, the solution was diluted 3 times with DMSO, and then diluted with a 3-fold gradient to obtain 9 concentration gradients. Then, each concentration of the compound was further diluted 200 times with the culture solution (to ensure that DMSO concentration in the culture system was 0.1%), 2 repeat wells for each concentration. The diluted solution of each compound (20 μL) was added to the cell culture well (with a final concentration of 10 μM, 3.3 μM, 1.1 μM . . . ), and shaken gently for mixing. In addition, three negative control wells containing only cells and three blank control wells containing only culture medium (20 μL DMSO diluted 200 times with culture medium being added to six wells) were included.\n(1) After culturing for 6 days, 10 μL CCK-8 was added to each well and cultured for additional 2.5 h in a 37° C., 5% CO2 cell incubator.\n(2) The absorbance (OD value) at 450 nm was measured with a multifunctional microplate reader.\n(3) The data was analyzed by the Dose-response-inhibition equation in the software GraphPad Prism6, and the IC50 value was obtained.", "units": {"IC50": "nM"}, "values": [{"smiles": "Cn1cc(-c2cc(S(C)(=O)=O)ccc2N2CCC3(CC2)CC3C(=O)O)c2cc[nH]c2c1=O", "note": "(centres unmarked) [Compound 39, 6-(2-(6-methyl-7-oxo-6,7-dihydro-1H-pyrrolo[2,3-c]pyridin-4-yl)-4-(methylsulfonyl)phenyl)-6-aza-spiro[2.5]octan-1-carboxylic acid]", "IC50": 2410}, {"smiles": "[2H]C([2H])([2H])n1cc(-c2cc(NS(=O)(=O)CC)ccc2N2CCC3(CC3)C2)c2cc[nH]c2c1=O", "note": "[Compound 40, N-(3-(7-oxo-6-(trideuteromethyl)-6,7-dihydro-1H-pyrrolo[2,3-c]pyridin-4-yl)-4-(5-aza-spiro[2.4]heptan-5-yl)phenyl)ethylsulfonamide]", "IC50": 15}, {"smiles": "[2H]C([2H])([2H])n1cc(-c2cc(NS(=O)(=O)CC)ccc2N2CCCC3(CC3)C2)c2cc[nH]c2c1=O", "note": "[Compound 42, N-(3-(6-trideuteromethyl-7-oxo-6,7-dihydro-1H-pyrrolo[2,3-c]pyridin-4-yl)-4-(5-aza-spiro[2.5]octan-5-yl)phenyl)ethylsulfonamide]", "IC50": 30}, {"smiles": "[2H]C([2H])([2H])n1cc(-c2cc(NS(=O)(=O)C3CC3)ccc2N2CC3(CCC3)C2)c2cc[nH]c2c1=O", "note": "[Compound 43, N-(3-(6-trideuteromethyl-7-oxo-6,7-dihydro-1H-pyrrolo[2,3-c]pyridin-4-yl)-4-(2-aza-spiro[3.3]heptan-2-yl)phenyl)cyclopropanesulfonamide]", "IC50": 50}, {"smiles": "[2H]C([2H])([2H])n1cc(-c2cc(NS(C)(=O)=O)ccc2N2CC3(CCC3)C2)c2cc[nH]c2c1=O", "note": "[Compound 44, N-(3-(6-trideuteromethyl-7-oxo-6,7-dihydro-1H-pyrrolo[2,3-c]pyridin-4-yl)-4-(2-aza-spiro[3.3]heptan-2-yl)phenyl)methanesulfonamide]", "IC50": 45}, {"smiles": "[2H]C([2H])([2H])n1cc(-c2cc(NS(=O)(=O)C3COC3)ccc2N2CC3(CCC3)C2)c2cc[nH]c2c1=O", "note": "[Compound 45, N-(3-(6-trideuteromethyl-7-oxo-6,7-dihydro-1H-pyrrolo[2,3-c]pyridin-4-yl)-4-(2-aza-spiro[3.3]heptan-2-yl)phenyl) oxetane-3-sulfonamide]", "IC50": 110}, {"smiles": "[2H]C([2H])([2H])n1cc(-c2cc(NS(=O)(=O)CCCC)ccc2N2CC3(CCC3)C2)c2cc[nH]c2c1=O", "note": "[Compound 46, N-(3-(6-trideuteromethyl-7-oxo-6,7-dihydro-1H-pyrrolo[2,3-c]pyridin-4-yl)-4-(2-aza-spiro[3.3]heptan-2-yl)phenyl)butane-1-sulfonamide]", "IC50": 130}, {"smiles": "[2H]C([2H])([2H])n1cc(-c2cc(NS(=O)(=O)CC)ccc2N2CC3(CCC3)C2)c2cc[nH]c2c1=O", "note": "[Compound 47, N-(3-(6-trideuteromethyl-7-oxo-6,7-dihydro-1H-pyrrolo[2,3-c]pyridin-4-yl)-4-(2-aza-spiro[3.3]heptan-2-yl)phenyl)ethanesulfonamide]", "IC50": 50}, {"smiles": "[2H]C([2H])([2H])n1cc(-c2cc(NS(C)(=O)=O)ccc2N2CC3(COC3)C2)c2cc[nH]c2c1=O", "note": "[Compound 48, N-(3-(6-trideuteromethyl-7-oxo-6,7-dihydro-1H-pyrrolo[2,3-c]pyridin-4-yl)-4-(2-oxa-6-aza-spiro[3.3]heptan-6-yl)phenyl)methanesulfonamide]", "IC50": 400}, {"smiles": "[2H]C([2H])([2H])n1cc(-c2cc(NS(=O)(=O)CC)ccc2N2CC3(COC3)C2)c2cc[nH]c2c1=O", "note": "[Compound 49, N-(3-(6-trideuteromethyl-7-oxo-6,7-dihydro-1H-pyrrolo[2,3-c]pyridin-4-yl)-4-(2-oxa-6-aza-spiro[3.3]heptan-6-yl)phenyl)ethanesulfonamide]", "IC50": 420}, {"smiles": "[2H]C([2H])([2H])n1cc(-c2cc(NS(=O)(=O)CCCC)ccc2N2CC3(COC3)C2)c2cc[nH]c2c1=O", "note": "[Compound 50, N-(3-(6-trideuteromethyl-7-oxo-6,7-dihydro-1H-pyrrolo[2,3-c]pyridin-4-yl)-4-(2-oxa-6-aza-spiro[3.3]heptan-6-yl)phenyl) butane-1-sulfonamide]", "IC50": 510}]}]}
